This is an account of results in US8759304B2, “Compositions and methods for increasing telomerase activity” (Telomerase Activation Science, Inc., priority 2003, dated 2014).

Data set [1] relates to telomerase activity in HEKneoP cells (neonatal keratinocytes). The experiment in a line: TRAP assay of telomerase activity in HEKneoP cells (neonatal keratinocytes). The format is cell-based, human. Conditions: for MEC (minimum effective concentration producing telomerase activity twice that of DMSO control): 100% greater than DMSO control.
The subject of data set [2] is young neonatal keratinocytes. The experiment in a line: Scratch assay (wound healing activity), young neonatal keratinocytes. The format is cell-based. To be noted: FIG. 5, 1 at 0.1 μg/ml, 2 at 0.01 μM; for WHtest (wound healing activity): WH=100−[100×Wn/W0], WHcntrl 52.6. Here is the method:
(§1) The compounds of formula I-III can be used to promote healing of wounds, burns, abrasions or other acute or chronic conditions of the epidermis, as discussed further below. As used herein, “wound healing activity as measured in a scratch assay” refers to the activity as measured in keratinocytes or fibroblasts according to the following protocol, and expressed as the value of WH shown in the formula below.
(§2) Cells are plated in flasks (5×10^5 cells per flask) and cultured for two days in a humidified chamber at 5% CO2, 37° C. To create the “wound”, a 2 ml plastic pipette is gently dragged to “scratch” the cell surface. The ideal wound is approximately 2-3 mm wide and 50 mm long (along the long axis of the tissue culture flask). The cells are retreated with medium containing either vehicle (DMSO; control sample) or test compositions at multiple concentrations. A wound area is identified, the flask marked, and the appearance of the cells documented photographically over 3-4 days continued culturing of the cells.
(§3) Amount of wound closure is determined by measuring the width of the wound over time for compound-treated samples relative to vehicle-treated or other control cells. Measurements are made from the photographs taken for each of the samples on days 1 (immediately after scratching), 2, 3, and 4. Percentage of wound healing (also expressed as “wound healing activity”) is calculated by the following formula: WH=100−[100×Wn/W0], where Wn is the width of the wound on day n and W0 is the width of the wound on day one (i.e. immediately after scratching).
(§4) Wound healing activity of invention compounds 1 (astragaloside IV) and 2 (cycloastragenol) was evaluated in aging keratinocytes, via a scratch assay as described above.

For data set [3], the system named is aging neonatal keratinocytes. The experiment in a line: Scratch assay (wound closure), aging neonatal keratinocytes. The format is cell-based. Conditions: FIG. 7; compared with 50 ng/mL PDGF. Here is the method:
as §1
Cells are plated in flasks (5×10^5 cells per flask) and cultured for two days in a humidified chamber at 5% CO2, 37° C. To create the “wound”, a 2 ml plastic pipette is gently dragged to “scratch” the cell surface. The ideal wound is approximately 2-3 mm wide and 50 mm long (along the long axis of the tissue culture flask). The cells are retreated with medium containing either vehicle (DMSO; control sample) or test compositions at multiple concentrations. […]
Amount of wound closure is determined by measuring the width of the wound over time for compound-treated samples relative to vehicle-treated or other control cells. […] Percentage of wound healing (also expressed as “wound healing activity”) is calculated by the following formula: WH=100−[100×Wn/W0], where Wn is the width of the wound on day n and W0 is the width of the wound on day one (i.e. immediately after scratching). […]

For data set [4], the system named is aging adult keratinocytes. Put plainly: Scratch assay (wound healing activity), aging adult keratinocytes. The data set is classed as cell-based. To be noted: FIG. 4; for Approx. wound width Day1 test: 0.1 μg/ml (about 0.13 μM) 1. The procedure:
as §1, §2, §3, §4
(GRN163 is a telomerase inhibitor oligonucleotide that targets the template region of the telomerase RNA component. Specifically, GRN 163 is a 13-mer N3′→P5′ thiophosphoramidate oligonucleotide, described in detail in PCT Pubn. No. WO 01/18015. GRN137227 is a 13-mer N3′→P5′ thiophosphoramidate control oligonucleotide having a mismatched sequence.)

Another data set relates to Sprague-Dawley rats. Put plainly: Systemic tolerance after single intravenous injection in rats. The data set is classed as in vivo. To be noted: single intravenous injections up to 10 mg/kg. Here is the method:
(§5) Studies in support of the invention indicate that the compounds of formula I-III have excellent bioavailability and low toxicity. For example, a representative compound, cycloastragenol (2), was negative for reverse bacterial mutation potential in the Ames test, employing Salmonella Typhimurium tester strains TA98, TA100, TA1535, TA 1537 and E. coli tester strain WP2 uvrA, at levels up to 5000 μg/plate. It was well-tolerated systemically in Sprague-Dawley rats, after single intravenous injections up to 10 mg/kg.

In data set [5] the test system is Salmonella Typhimurium tester strains TA98, TA100, TA1535, TA 1537 and E. coli tester strain WP2 uvrA. The experiment in a line: Ames test (reverse bacterial mutation). Conditions: levels up to 5000 μg/plate. Here is the method:
as §5
For orientation: The Ames test uses bacterial strains that need an amino acid and regain growth without it when mutated back.

The mark [6] stands for this setting: day 1 immediately after scratching.

On to `CC(C)(O)[C@@H]1CC[C@](C)([C@H]2[C@@H](O)C[C@@]3(C)[C@@H]4C[C@H](O[C@@H]5O[C@H](CO)[C@@H](O)[C@H](O)[C@H]5O)[C@H]5C(C)(C)[C@@H](O[C@@H]6OC[C@@H](O)[C@H](O)[C@H]6O)CC[C@@]56C[C@@]46CC[C@]23C)O1` [Compound 1, astragaloside IV], for which the “MEC (minimum effective concentration producing telomerase activity twice that of DMSO control)” value (from here on “MEC”) in data set [1] worked out at 0.01 µM. Further, the telomerase activity entry in data set [1] (at 1.0 μM in DMSO, maximum, decreased at higher concentration up to 10 μM) is on record as “about 360 % of control”. In addition, the “Approx. wound width Day1 test” value in data set [2] was 0 arbitrary units; in data set [2] (setting [6]), 18 arbitrary units; in data set [4], 0 arbitrary units; in data set [4] (setting [6]), 17 arbitrary units. The “WHtest (wound healing activity)” value in data set [2] is 100; in data set [4] (0.1 μg/ml 1, WH=100−[100×Wn/W0], WHcntrl 54.5), 100. In data set [3], the “wound closure as percent of control, effectiveness” value is recorded as “comparable to that of PDGF”. For the same molecule, in data set [4] (0.1 μg/ml (about 0.13 μM) 1 in DMSO, control still had sizable wound at day 4), the “state of scratch wound in treated cells” value is listed as “confluent at day 4”.

Regarding `CC(C)(O)[C@@H]1CC[C@](C)([C@H]2[C@@H](O)C[C@@]3(C)[C@@H]4C[C@H](O)[C@H]5C(C)(C)[C@@H](O)CC[C@@]56C[C@@]46CC[C@]23C)O1` [Compound 2, cycloastragenol], the “MEC” value in data set [1] was 0.01 µM. For the same molecule, the telomerase activity entry in data set [1] (at 0.1 μM in DMSO, maximum, decreased with further increases in concentration) is given as “about 300 % of control”. Besides, the “changes in behavior (eating, drinking), gross weight, organ weights, hematology or clinical chemistry” value in the data set on Sprague-Dawley rats (males or females) was “No significant dose-dependent changes”. The systemic tolerance entry in the data set with Sprague-Dawley rats is reported as “well-tolerated”. The “reverse bacterial mutation potential” value in data set [5] is “negative”. Moreover, in data set [2], the “Approx. wound width Day1 test” value came out at 2 arbitrary units and the “WHtest (wound healing activity)” value is recorded as 90.5. Moreover, in data set [2] (setting [6]), the “Approx. wound width Day1 test” value worked out at 21 arbitrary units.

As for `CC(C)(O)[C@@H]1CC[C@](C)([C@H]2[C@@H](O)C[C@@]3(C)[C@@H]4C[C@H](O)[C@H]5C(C)(C)[C@@H](O)CC[C@]5(C)C4=CC[C@]23C)O1` [Compound 3, astragenol], the “MEC” value in data set [1] came to 0.03 µM.

Turning to `CC1(C)C2=CC[C@@H]3[C@@](C)(CC[C@]4(C)[C@@H]([C@@]5(C)CC[C@@H](C(C)(C)O)O5)[C@@H](O)C[C@@]34C)C2=CCC1O` (stereo partly drawn) [Compound 5, 20R,24S-epoxy-3β,16β,25-trihydroxy-9β-methyl-19-norlanost-1,5-diene], the “MEC” value in data set [1] worked out at 0.10 µM.

`CC(C)(O)[C@@H]1CC[C@](C)([C@H]2[C@@H](O)C[C@@]3(C)[C@@H]4C[C@H](OC5O[C@H](CO)[C@@H](O)[C@H](O)[C@H]5O)[C@H]5C(C)(C)C(O)CCC56C[C@@]46CC[C@]23C)O1` (stereo partly drawn) [Compound 6, cycloastragenol 6-β-D-glucopyranoside]: the “MEC” value in data set [1] is 3.2 µM.

Consider `CC(C)(O)[C@@H]1CC[C@](C)([C@H]2[C@@H](O)C[C@@]3(C)[C@@H]4C[C@H](O)[C@H]5C(C)(C)C(O[C@@H]6OC[C@@H](O)[C@H](O)[C@H]6O)CCC56C[C@@]46CC[C@]23C)O1` (stereo partly drawn) [Compound 7, cycloastragenol 3-β-D-xylopyranoside], for which the “MEC” value in data set [1] stood at 3.2 µM.

As to `CC(C)=CCC[C@](C)(O)[C@H]1CC[C@]2(C)[C@@H]1[C@H](O)C[C@@H]1[C@@]3(C)CC[C@H](O)C(C)(C)[C@@H]3[C@@H](O[C@@H]3O[C@H](CO)[C@@H](O)[C@H](O)[C@H]3O)C[C@]12C` [Compound 8, ginsenoside RH1], the “MEC” value in data set [1] was 10 µM.

As for EGF: epidermal growth factor, in data set [1] (cells treated with 10 nM EGF), the telomerase activity entry was “about 200%”.

Take astragaloside IV 16-one [Compound 4]: the “MEC” value in data set [1] amounted to 0.03 µM.
